Series [1] can be described thus: Stability of PTH or TGPTH in buffer (spiked samples, direct ELISA). The note with it: 0.5 μg/mL, 37° C., distilled water, phosphate buffer saline, tris-buffer saline. The series is classed as physicochemical. On the procedure: For the first release assay, a fibrin matrix of 50 μl with 0.1 mg PTH or TGPTH per ml fibrin matrix was incubated at 37° C. in 10 ml buffer. Therefore, the concentration of PTH or TGPTH in the buffer in case of a total release would be 0.5 μg PTH or TGPTH/mL fibrin matrix. In order to compare the stability of PTH or TGPTH during the assay, samples of PTH or TGPTH were diluted directly in the buffer to a concentration of 0.5 μg PTH or TGPTH/mL fibrin matrix. Different buffers were tested: distilled water, phosphate buffer saline, tris-buffer saline.
Aliquots were taken at days 0, 1, 2, 4 and 6 and analysed by direct ELISA. […] Therefore, no conclusion could be made on the release data. The PTH stability was certainly affected by its low concentration and the buffers that were not optimal.
The release experiment was repeated by using a stabilizing buffer containing 50 mM mannitol in a 10 mM sodium acetate buffer. In addition, the buffer was exchanged every 2 days in order to prevent any degradation of peptide. […] The concentration of PTH or TGPTH in the buffer in case of a total release would be 100 μg/mL fibrin matrix (200 times more than before). […] Samples were collected every 2 to 4 days (with a change of buffer) during 2 weeks and analysed by direct ELISA. […]
Background: In an ELISA, binding on a coated surface is turned into a signal by an enzyme label.

Series [2] addresses T1, parathyroid hormone receptor (Homo sapiens, UniProt Q03431).
T1 construct: endogenous in cells; transfected only with a luciferase reporter plasmid driven by the PTH receptor promoter
T1 sequence (Q03431 27-593): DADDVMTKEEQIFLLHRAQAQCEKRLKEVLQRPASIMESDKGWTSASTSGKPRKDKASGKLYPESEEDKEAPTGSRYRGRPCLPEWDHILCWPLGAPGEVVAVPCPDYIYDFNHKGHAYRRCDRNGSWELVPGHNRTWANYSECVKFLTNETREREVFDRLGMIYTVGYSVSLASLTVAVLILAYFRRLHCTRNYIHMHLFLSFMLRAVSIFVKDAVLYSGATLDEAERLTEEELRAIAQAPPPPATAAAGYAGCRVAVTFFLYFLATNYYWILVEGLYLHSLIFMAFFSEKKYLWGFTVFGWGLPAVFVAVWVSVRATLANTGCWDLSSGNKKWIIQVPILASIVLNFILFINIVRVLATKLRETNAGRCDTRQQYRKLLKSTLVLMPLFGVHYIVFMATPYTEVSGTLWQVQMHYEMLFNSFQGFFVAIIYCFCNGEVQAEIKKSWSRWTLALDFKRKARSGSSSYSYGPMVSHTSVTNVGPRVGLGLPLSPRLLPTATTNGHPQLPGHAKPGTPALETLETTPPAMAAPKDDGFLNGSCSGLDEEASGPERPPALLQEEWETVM
The series can be described thus: Reporter gene assay for bioactivity of PTH fusion peptides. The note with it: luciferase reporter linked to PTH receptor promoter; equal amounts; compared to international 84 amino acid standard. Type of series: cell-based. On the procedure: Cells transfected with a reporter gene linked to a promoter for a PTH receptor were treated with equal amounts of either PTH1-34, TG-pl-PTH1-34 (described hereinafter) or the international 84 amino acid standard. The inhibition of expression of the luciferase reporter gene was measured and compared to transfected cells that were not exposed to PTH in solution (control).
To study the bioactivity of the PTH fusion peptides, a reporter gene assay was established. In this assay, a plasmid that contains luciferase reporter gene which is linked to the promoter for the parathyroid hormone receptor is transfected into cells. Then, if the cell is exposed to PTH and the PTH subsequently binds to its receptor on the cell, a signal cascade, directed through elevated cAMP levels, is initiated. Through a natural feedback regulation, this then leads to a reduction of PTH receptor levels. As the reduction is directed through the promoter, it also then leads to a decrease in production of the linked reporter gene. Using this assay, the activity of both native PTH1-34 as well as TG-pl-PTH1-34 were studied and compared to an international standard.

Bounds are passed on as bounds.

Consider `CC[C@H](C)[C@H](NC(=O)[C@H](CCC(=O)O)NC(=O)[C@H](CO)NC(=O)[C@@H](NC(=O)[C@@H](N)CO)C(C)C)C(=O)N[C@@H](CCC(N)=O)C(=O)N[C@@H](CC(C)C)C(=O)N[C@@H](CCSC)C(=O)N[C@@H](Cc1cnc[nH]1)C(=O)N[C@@H](CC(N)=O)C(=O)N[C@@H](CC(C)C)C(=O)NCC(=O)N[C@@H](CCCCN)C(=O)N[C@@H](Cc1cnc[nH]1)C(=O)N[C@@H](CC(C)C)C(=O)N[C@@H](CC(N)=O)C(=O)N[C@@H](CO)C(=O)N[C@@H](CCSC)C(=O)N[C@@H](CCC(=O)O)C(=O)N[C@@H](CCCN=C(N)N)C(=O)N[C@H](C(=O)N[C@@H](CCC(=O)O)C(=O)N[C@@H](Cc1c[nH]c2ccccc12)C(=O)N[C@@H](CC(C)C)C(=O)N[C@@H](CCCN=C(N)N)C(=O)N[C@@H](CCCCN)C(=O)N[C@@H](CCCCN)C(=O)N[C@@H](CC(C)C)C(=O)N[C@@H](CCC(N)=O)C(=O)N[C@@H](CC(=O)O)C(=O)N[C@H](C(=O)N[C@@H](Cc1cnc[nH]1)C(=O)N[C@@H](CC(N)=O)C(=O)N[C@@H](Cc1ccccc1)C(=O)O)C(C)C)C(C)C` [PTH1-34], for which the stability in buffer in series [1] was no more than 2 days.

Regarding “NQEQVSPLYKNRSVSEIQLMHNLGKHLNSMERVEWLRKKLQDVHNF [TG-pl-PTH1-34]”, in series [2], the “level of activity (reduction in reporter gene expression)” value is on record as “the same as for the international standard”.

These data come from patent US8318674B2, “Local treatment of bone defects” (Kuros Biosurgery AG, priority 2005, dated 2012).
